Each compound was assayed against T1, TBK1 (Homo sapiens, UniProt Q9UHD2) (assay: ADP-Glo Kinase Assay, inhibition activity on TBK1).
T1 construct: purchased Promega (Invitrogen is also named in the same bracket) V4158; PR8031B; V3991 (not assigned to the two kinases)
T1 sequence (Q9UHD2 1-729): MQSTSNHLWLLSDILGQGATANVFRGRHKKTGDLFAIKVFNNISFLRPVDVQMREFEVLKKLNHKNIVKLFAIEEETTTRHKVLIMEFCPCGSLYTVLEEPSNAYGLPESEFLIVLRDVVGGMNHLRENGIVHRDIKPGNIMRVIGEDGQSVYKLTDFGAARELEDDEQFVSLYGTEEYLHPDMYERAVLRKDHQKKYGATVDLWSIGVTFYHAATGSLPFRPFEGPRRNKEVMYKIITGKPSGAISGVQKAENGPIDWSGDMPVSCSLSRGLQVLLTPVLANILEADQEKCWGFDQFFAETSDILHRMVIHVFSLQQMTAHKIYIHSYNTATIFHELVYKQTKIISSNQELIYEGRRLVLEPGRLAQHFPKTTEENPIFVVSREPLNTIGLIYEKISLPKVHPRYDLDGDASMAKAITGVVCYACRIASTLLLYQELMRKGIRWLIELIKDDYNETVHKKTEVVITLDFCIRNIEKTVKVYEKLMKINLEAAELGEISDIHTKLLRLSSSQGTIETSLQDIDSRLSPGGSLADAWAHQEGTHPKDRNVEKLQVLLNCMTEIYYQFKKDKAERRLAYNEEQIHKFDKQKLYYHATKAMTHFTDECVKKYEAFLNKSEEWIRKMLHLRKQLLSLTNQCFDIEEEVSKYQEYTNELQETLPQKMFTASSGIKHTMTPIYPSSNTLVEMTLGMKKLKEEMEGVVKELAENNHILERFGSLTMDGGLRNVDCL
Assay type: biochemical
Experimental: Inhibition activities on IKKϵ and TBK1 were evaluated using the compounds of Examples 1 to 250.
The inhibition activities on IKKϵ and TBK1 were measured by a luminometer, IKKϵ/TBK1 Kinase Enzyme System (Promega, Ca# V4158; Invitrogen, PR8031B, Promega, Ca# V3991) and ADP-Glo Kinase Assay using ADP-Glo™ Kinase Analysis Kit (Promega, Ca# V9101) and a kinase reaction buffer [40 mM Tris(pH 7.5), 20 mM MgCl2, 0.1 mg/mL BSA] in accordance with the manufacturer's protocol.

`CCCCCOC(=O)N1CC=C(c2c[nH]c3ncccc23)CC1` [Example 136, Pentyl 4-(1H-pyrrolo[2,3-b]pyridin-3-yl)-5,6-dihydropyridine-1(2H)-carboxylate] was tested. Which IC50 did it give?
The IC50 was 10600 nM.

`CCCOC(=O)N1CC=C(c2c[nH]c3ncccc23)CC1` [Example 137, Propyl 4-(1H-pyrrolo[2,3-b]pyridin-3-yl)-5,6-dihydropyridine-1(2H)-carboxylate] was tested. Which IC50 did it give?
Its IC50 is 440 nM.

Which IC50 does the source give for `CCCCOC(=O)N1CC=C(c2c[nH]c3ncccc23)CC1` [Example 138, Butyl 4-(1H-pyrrolo[2,3-b]pyridin-3-yl)-5,6-dihydropyridine-1(2H)-carboxylate] here?
The IC50 was 5200 nM.

`CC(C)OC(=O)N1CC=C(c2c[nH]c3ncccc23)CC1` [Example 139, Isopropyl 4-(1H-pyrrolo[2,3-b]pyridin-3-yl)-5,6-dihydropyridine-1(2H)-carboxylate] was tested. Which IC50 did it give?
Its IC50 is 320 nM.

With `O=C(OC1CCCC1)N1CC=C(c2c[nH]c3ncccc23)CC1` [Example 140, Cyclopentyl 4-(1H-pyrrolo[2,3-b]pyridin-3-yl)-3,6-dihydropyridine-1(2H)-carboxylate] as the compound, how does the IC50 read?
Its IC50 is 310 nM.

How did the IC50 turn out when `CCC(C)OC(=O)N1CC=C(c2c[nH]c3ncccc23)CC1` (stereo not drawn) [Example 141, sec-Butyl 4-(1H-pyrrolo[2,3-b]pyridin-3-yl)-5,6-dihydropyridine-1(2H)-carboxylate] was run?
The IC50 was 500 nM.

With `CCC(CC)OC(=O)N1CC=C(c2c[nH]c3ncccc23)CC1` [Example 142, Pentan-3-yl 4-(1H-pyrrolo[2,3-b]pyridin-3-yl)-5,6-dihydropyridine-1(2H)-carboxylate] as the compound, how does the IC50 read?
The IC50 was 3000 nM.

With `O=C(OC1CCCCC1)N1CC=C(c2c[nH]c3ncccc23)CC1` [Example 143, Cyclohexyl 4-(1H-pyrrolo[2,3-b]pyridin-3-yl)-5,6-dihydropyridine-1(2H)-carboxylate] as the compound, how does the IC50 read?
Its IC50 is 1000 nM.

`COc1ccc(-c2cnc3[nH]cc(C4=CCN(C(=O)OC5CCCC5)CC4)c3c2)cc1OC` [Example 144, Cyclopentyl 4-(5-(3,4-dimethoxyphenyl)-1H-pyrrolo[2,3-b]pyridin-3-yl)-5,6-dihydropyridine-1(2H)-carboxylate] was tested. Which IC50 did it give?
The IC50 was 460 nM.

For `CC(C)OC(=O)N1CC=C(c2c[nH]c3ncc(-c4cccc(S(N)(=O)=O)c4)cc23)CC1` [Example 146, Isopropyl 4-(5-(3-sulfamoylphenyl)-1H-pyrrolo[2,3-b]pyridin-3-yl)-5,6-dihydropyridine-1(2H)-carboxylate], which IC50 is on record?
The IC50 was over 10000 nM.

`COc1ccc(-c2cnc3[nH]cc(C4=CCN(C(=O)OC(C)C)CC4)c3c2)cc1OC` [Example 147, Isopropyl 4-(5-(3,4-dimethoxyphenyl)-1H-pyrrolo[2,3-b]pyridin-3-yl)-5,6-dihydropyridine-1(2H)-carboxylate] was tested. Which IC50 did it give?
The IC50 was 110 nM.

How did the IC50 turn out when `CC(C)OC(=O)N1CC=C(c2c[nH]c3ncc(-c4cccc(S(C)(=O)=O)c4)cc23)CC1` [Example 149, Isopropyl 4-(5-(3-(methylsulfonyl)phenyl)-1H-pyrrolo[2,3-b]pyridin-3-yl)-5,6-dihydropyridine-1(2H)-carboxylate] was run?
Its IC50 is 30 nM.

Which IC50 does the source give for `CC(C)OC(=O)N1CC=C(c2c[nH]c3ncc(-c4ccc(S(N)(=O)=O)cc4)cc23)CC1` [Example 150, Isopropyl 4-(5-(4-sulfamoylphenyl)-1H-pyrrolo[2,3-b]pyridin-3-yl)-5,6-dihydropyridine-1(2H)-carboxylate] here?
The IC50 was 36 nM.

How did the IC50 turn out when `CC(C)(C)OC(=O)N1CC=C(c2c[nH]c3ncc(-c4cccc(S(N)(=O)=O)c4)cc23)CC1` [Example 151, tert-Butyl 4-(5-(3-sulfamoylphenyl)-1H-pyrrolo[2,3-b]pyridin-3-yl)-5,6-dihydropyridine-1(2H)-carboxylate] was run?
Its IC50 is 42 nM.

With `CC(C)(C)OC(=O)N1CC=C(c2c[nH]c3ncc(-c4ccc(S(N)(=O)=O)cc4)cc23)CC1` [Example 152, tert-Butyl 4-(5-(4-sulfamoylphenyl)-1H-pyrrolo[2,3-b]pyridin-3-yl)-5,6-dihydropyridine-1(2H)-carboxylate] as the compound, how does the IC50 read?
The IC50 was 81 nM.

From patent US10239873B2, “7-azaindole or 4,7-diazaindole derivatives as IKKϵ epsilon and TBK1 inhibitor and pharmaceutical composition comprising same” (GREEN CROSS CORPORATION, priority 2015, dated 2019)
